{"source": "paper PMC9266460", "about": "“KSK-74: Dual Histamine H3 and Sigma-2 Receptor Ligand with Anti-Obesity Potential” (International Journal of Molecular Sciences, 2022)", "key": {"[1]": {"system": "mice fed a high-fat diet", "design": "method as in PMID 15447739", "conditions": "highest dose; cited from earlier work"}, "[2]": {"design": "method as in PMID 15447739", "conditions": "cited from earlier work"}, "[3]": {"target": "sigma-1 receptor", "design": "method as in PMID 34908391", "conditions": "Figure 1; read-out: σ1R Ki; cited from earlier work"}, "[4]": {"target": "sigma-2 receptor", "design": "method as in PMID 34908391", "conditions": "Figure 1; read-out: σ2R Ki; cited from earlier work"}, "[5]": {"target": "T1, H3R (Homo sapiens, UniProt Q9Y5N1)", "T1 construct": "the Aequoscreen line co-expresses apoaequorin", "T1 sequence (Q9Y5N1 whole entry)": "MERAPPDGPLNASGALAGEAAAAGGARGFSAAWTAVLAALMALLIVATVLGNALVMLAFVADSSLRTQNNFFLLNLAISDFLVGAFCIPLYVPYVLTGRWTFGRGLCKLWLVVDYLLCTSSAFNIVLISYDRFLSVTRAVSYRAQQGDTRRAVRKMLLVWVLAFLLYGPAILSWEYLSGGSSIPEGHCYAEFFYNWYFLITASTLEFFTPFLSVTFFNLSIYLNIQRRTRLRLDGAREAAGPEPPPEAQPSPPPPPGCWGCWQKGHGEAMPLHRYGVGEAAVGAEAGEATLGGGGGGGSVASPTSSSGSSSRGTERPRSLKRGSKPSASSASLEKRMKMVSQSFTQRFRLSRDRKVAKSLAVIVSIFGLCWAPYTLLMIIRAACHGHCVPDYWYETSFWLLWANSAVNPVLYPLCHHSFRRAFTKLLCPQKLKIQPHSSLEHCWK", "experiment": "Affinity at the H3R (literature values)", "format": "binding", "conditions": "H3R Ki relative to sigma-2 Ki"}, "[6]": {"system": "rats fed a palatable diet", "conditions": "cited from earlier work; for inhibition of weight gain: model of excessive eating"}, "[7]": {"system": "adipose tissue", "experiment": "Histological examination of adipose tissue (Masson's trichrome)", "format": "in vivo, female Wistar rats", "conditions": "palatable diet", "description": "Adipose tissue samples were prepared for histology using Masson’s trichrome stain (Merck) by fixation in 4% formaldehyde, dehydration in graded alcohol, and embedded in paraffin. The tissue samples were then sectioned using a microtome of 5 μm thickness. Six random fields from each section were analyzed in a blinded manner with an Olympus BX41 light microscope (Olympus, Tokyo, Japan) at magnifications of ×20, ×40 and ×100, and digital images were captured with an Olympus UC90 color camera. The quantitation of the number of adipocytes was performed in eight fields/slide with ×100 objective using an image analysis system: CellSensDimension (Olympus, Tokyo, Japan). The numerical density of the adipocytes was obtained by counting the total number of adipocytes per high-power field ([…]), and then this number was converted to 0.1 mm^2. According to stereometric rules, adipocytes tangent to the left and top edges of the image field were not counted. A semi-quantitative scale was used to assess the inflammatory response in adipose tissue. The following were evaluated on a subjective scale: inflammatory cell infiltration between adipocytes (0—normal, 1—few cells, 2—local clusters, and 3—extensive infiltrates), perivascular infiltration of immune cells (0—normal, 1—few cells, and 2—ring of inflammatory cells), widening of the septum (0—normal and 1—widening), and capillary congestion (0—normal and 1—congestion). A sum calculated from independently assessed values was calculated for each animal as an index of inflammation."}, "[8]": {"system": "peritoneal adipose tissue", "experiment": "Leptin, resistin, IL-6 and MCP-1 levels in adipose tissue (ELISA)", "format": "in vivo, female Wistar rats", "conditions": "KSK 10 mg/kg i.p., phentermine 7 mg/kg", "description": "The frozen peritoneal adipose tissue was weighed, and homogenates were prepared by homogenizing 1 g of tissue in 4 mL of 0.1 M phosphate buffer, pH 7.4, using the IKA-ULTRA-TURRAX T8 homogenizer. The adipose tissue homogenates were then used for biochemical assays.\nTo determine the levels of leptin, resistin, IL-6, and MCP-1 in adipose tissue, the standard ELISA Kit (Cat. No E0561Ra, Cat. No E0211Ra, Cat. No E0135Ra, Cat. No E0193Ra, Bioassay Technology Laboratory, Shanghai, China) was used. To determine the levels of protein, a standard spectrophotometric test (Cat. No 1-008-B210, Biomaxima S.A. Lublin, Poland) was used."}, "[9]": {"system": "rats fed a palatable diet", "experiment": "Plasma triglyceride and corticosterone levels in the model of excessive eating", "format": "in vivo, female Wistar rats", "conditions": "KSK 10 mg/kg, phentermine 7 mg/kg", "description": "Blood was collected from the left carotid artery and then centrifuged at 600× g (15 min, 4 °C) to obtain plasma.\nTo determine plasma triglyceride levels, standard enzymatic and spectrophotometric tests (Cat. No 1-053-A150, Biomaxima S.A., Lublin, Poland) were used. The ELISA Kit (Item No. 501320, Cayman Chemical, Ann Arbor, MI, USA) was used to determine corticosterone levels in plasma."}, "[10]": {"system": "rats fed a palatable diet", "experiment": "Model of excessive eating: body weight, calorie intake, fat pads", "format": "in vivo, female Wistar rats", "description": "Experiments were performed on female Wistar rats with an initial body weight of 140–160 g. The animals were housed in plastic cages (2 rats per cage) at a constant room temperature of 22 ± 2 °C, with a 12:12 h light/dark cycle. Water and food were available ad libitum. The randomly established experimental groups consisted of 6 rats for pharmacological studies and 3 rats for pharmacokinetic studies. All experiments were conducted in accordance with the Guide to the Care and Use of Experimental Animals, and were approved by the Jagiellonian University in Krakow Local Ethics Committee for Experiments on Animals (Permission No: 185/2017, 220/2019 and 223A/2019).\nFemale rats were randomly divided into several groups (n = 6) and studied for 4 weeks. The groups were as follows: standard diet + vehicle, palatable diet + vehicle, palatable diet + KSK-60 (1 mg/kg), palatable diet + KSK-60 (10 mg/kg), palatable diet + KSK-74 (1 mg/kg), palatable diet + KSK-74 (10 mg/kg), palatable diet + phentermine (7 mg/kg).\nThe studies for the 1 mg/kg b.w. and 10 mg/kg b.w. doses were performed at different times, so the parameters studied were compared to the respective control groups.\nRats fed a palatable diet had access to a diet consisting of milk chocolate with nuts, cheese, salted peanuts, and 7% condensed milk, and simultaneously to a standard feed (Labofeed B, Morawski Manufacturer Feed, Poland) for 4 weeks. The water was available ad libitum. Animals had access to palatable products, but also to the standard feed. Most importantly, feeding was not in any way forced, as in other models where animals were fed only a high-fat diet, or temporarily deprived of food (binge eating models). In the case of our model, rats decided themselves when, what, and how much to eat. The weight was evaluated daily. Calorie intake was evaluated three times a week. A palatable diet contained 100 g of peanuts—612 kcal; 100 mL of condensed milk—131 kcal; 100 g of milk chocolate—529 kcal; and 100 g of cheese—325 kcal. The standard diet contained 100 g of feed—280 kcal. Standard diet (fats 8%, carbohydrates 67%, proteins 25%) contained 100 g feed—280 kcal.\nThe palatable control group (palatable diet + vehicle) received vehicle (1% Tween 80 i.p., daily, for 4 weeks), while palatable test groups were injected i.p. with KSK-60 (1 mg or 10 mg/kg i.p, daily, for 4 weeks), KSK-74 (1 mg/kg or 10 mg/kg i.p, daily, for 4 weeks), or phentermine (7 mg/kg i.p., daily, for 4 weeks), respectively.\nOn the 31st day, 20 min after i.p. administration of heparin (5000 units/rat) and thiopental (70 mg/kg b.w.), animals were sacrificed, and plasma as well as peritoneal fat pads were collected (food was stopped for 6 h prior to organ, tissue, and plasma collection) for further study."}, "[11]": {"system": "induced obesity in mice", "design": "method as in PMID 29802412", "conditions": "i.p. 10 mg/kg b.w. for 14 days; cited from earlier work"}, "[12]": {"system": "obese animal after olanzapine treatment", "design": "method as in PMID 11985350, PMID 22695490", "conditions": "cited from earlier work"}, "[13]": {"system": "obese adults", "design": "method as in earlier work", "conditions": "cited from earlier work"}}}
{"smiles": "CN(C)[C@@H]1CCN(CCCOc2ccc(-c3ccc(C#N)cc3)cc2)C1", "note": "[Compound A-331440]", "values": [{"measurement": "body weight", "setting": "[1]", "value": "induced weight loss comparable to mice fed a low-fat diet"}, {"measurement": "reason for exclusion from clinical trials", "setting": "[2]", "value": "genotoxicity"}]}
{"smiles": "CC(=O)c1ccc(OCCCCCCCCN2CCN(c3ccncc3)CC2)cc1", "note": "[KSK-73]", "values": [{"measurement": "Ki", "setting": "[3]", "value": 408, "unit": "nM"}, {"measurement": "Ki", "setting": "[4]", "value": 59.7, "unit": "nM"}, {"measurement": "affinity ratio H3/sigma-2 receptors", "setting": "[5]", "value": 0.68}, {"measurement": "inhibition of weight gain", "setting": "[6]", "value": "high efficacy in inhibiting weight gain"}]}
{"smiles": "CC(=O)c1ccc(OCCCCCCN2CCN(c3ccncc3)CC2)cc1", "note": "[KSK-59]", "values": [{"measurement": "Ki", "setting": "[3]", "value": 37.8, "unit": "nM"}, {"measurement": "Ki", "setting": "[4]", "value": 151, "unit": "nM"}, {"measurement": "inhibition of weight gain", "setting": "[6]", "value": "high efficacy in inhibiting weight gain"}]}
{"smiles": "CC(C)(N)Cc1ccccc1", "note": "[phentermine, reference compound]", "values": [{"measurement": "capillary congestion and crown-like structures in adipose tissue", "setting": "[7]; 7 mg/kg", "value": "marked capillary congestion and frequent appearance of crown-like structures"}, {"measurement": "inflammatory infiltrates in adipose tissue (histological description)", "setting": "[7]; KSK 10 mg/kg, phentermine 7 mg/kg", "value": "slightly less inflammatory infiltrates"}, {"measurement": "number of adipocytes per 0.1 mm^2 of cross-sectional area", "setting": "[7]; KSK 10 mg/kg, phentermine 7 mg/kg, means ± SD, n = 6", "value": "more similar to the results of the palatable diet + vehicle group"}, {"measurement": "inflammatory index of the adipose tissue", "setting": "[7]; KSK 10 mg/kg, phentermine 7 mg/kg, standard diet + vehicle 0.5 ± 0.34", "value": "4.16 ± 0.48"}, {"measurement": "number of rats, Capillary Congestion grade 1-Congestion", "setting": "[7]; n = 6 per group", "value": 6}, {"measurement": "number of rats, Inflammatory Cell Infiltration grade 1-Few Cells", "setting": "[7]; n = 6 per group", "value": 4}, {"measurement": "number of rats, Inflammatory Cell Infiltration grade 2-Local Clusters", "setting": "[7]; n = 6 per group", "value": 2}, {"measurement": "number of rats, Perivascular Infiltration grade 0-Normal", "setting": "[7]; n = 6 per group", "value": 1}, {"measurement": "number of rats, Perivascular Infiltration grade 1-Few Cells", "setting": "[7]; n = 6 per group", "value": 4}, {"measurement": "number of rats, Perivascular Infiltration grade 2-Ring of Cells", "setting": "[7]; n = 6 per group", "value": 1}, {"measurement": "number of rats, Widening of the Septum grade 0-Normal", "setting": "[7]; n = 6 per group", "value": 1}, {"measurement": "number of rats, Widening of the Septum grade 1-Widening", "setting": "[7]; n = 6 per group", "value": 5}, {"measurement": "resistin levels in adipose tissue vs palatable diet + vehicle", "setting": "[8]", "value": "did not influence"}, {"measurement": "leptin levels in adipose tissue", "setting": "[8]; vs palatable diet + vehicle unless worded otherwise", "value": "did not influence"}, {"measurement": "plasma triglyceride levels vs palatable diet + vehicle", "setting": "[9]", "value": "lower plasma triglyceride levels"}, {"measurement": "amount of peritoneal fat pads vs palatable diet + vehicle", "setting": "[10]; KSK 10 mg/kg, phentermine 7 mg/kg, end of experiment", "value": "fewer peritoneal fat pads"}, {"measurement": "calorie intake vs control group fed palatable feed", "setting": "[10]; i.p. 28 days, KSK 10 mg/kg b.w., phentermine 7 mg/kg b.w.", "value": "did not significantly influence the amount of calories consumed"}, {"measurement": "body weight gain vs palatable diet + vehicle", "setting": "[10]; i.p. daily 4 weeks, KSK-60/KSK-74 10 mg/kg b.w., phentermine 7 mg/kg", "value": "gained less weight"}]}
{"smiles": "Clc1ccc(CCCOCCCN2CCCCC2)cc1", "note": "[Pitolisant]", "values": [{"measurement": "body weight and metabolic disturbances", "setting": "[11]", "value": "positive influence on body weight, glucose tolerance, and lipid profile"}]}
{"smiles": "CNCCc1ccccn1", "note": "[Betahistine, reference compound]", "values": [{"measurement": "body weight", "setting": "[12]", "value": "induced significant weight loss"}, {"measurement": "reduction of body weight and waist circumference compared with Orlistat", "setting": "[13]", "value": "did not show significant differences"}, {"measurement": "high-density lipoprotein (HDL) levels, long-term administration", "setting": "[6]; rat model of excessive eating", "value": "increases high-density lipoprotein (HDL) levels"}, {"measurement": "weight gain, long-term administration", "setting": "[6]; rat model of excessive eating", "value": "slows weight gain"}]}
